# What was measured:
# [1] = tested on: metabolism of warfarin; settings: concomitant warfarin; cited from earlier work
# [2] = tested on: rat; test: reproductive toxicology studies, dosing during pregnancy; assay type: in vivo
# Text: (§1) As described herein, an exemplary restricted drug distribution program for the distribution of sitaxsentan sodium has been developed, in accordance with the restricted distribution methods provided above, to minimize the risk of side effects associated with exposure to sitaxsentan sodium. Sitaxsentan sodium is an endothelin receptor antagonist (ETRA) used to treat people diagnosed with pulmonary arterial hypertension (PAH). […] However, along with the many benefits, there are many risks associated with exposure to sitaxsentan sodium. For instance, ETRA's, as a class, have been associated with liver function abnormalities. […] In addition, ETRA's, as a class, have consistently produced teratogenic effects in animals. […] Although the effects of sitaxsentan sodium on human development are not known, it is likely to produce major birth defects if used by pregnant women. Sitaxsentan sodium also is contraindicated for those taking cyclosporine A (used for treatment of psoriasis and rheumatoid arthritis, and to prevent rejection of organ transplants).
# [3] = placebo-controlled trials, liver aminotransferases; assay type: in vivo, patients
# Text: as §1
# [4] = tested on: pulmonary arterial hypertension (PAH); test: clinical studies in subjects with PAH; assay type: in vivo
# Text: as §1
compound,measurement,setting,value
Cc1cc2c(cc1CC(=O)c1sccc1S(=O)(=O)Nc1onc(C)c1Cl)OCO2 [sitaxsentan sodium],effect on metabolism of warfarin,[1],antagonize the metabolism of warfarin
same,reproductive toxicology: effect of dosing during pregnancy,[2],several fetal malformations
same,patients with at least a three-fold increase of liver aminotransferases (hepatoxicity),[3],about two
same,safety and efficacy in the treatment of PAH,[4],demonstrated safety and efficacy
